Reference: ChEMBL document CHEMBL1201862, “PubChem BioAssay data set” (2004)
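Results reflect a 48-hour exposure of cells in 96-well plates to compound at five concentrations. GI50 is the concentration that inhibits growth by half.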 Activity calls are given as the source filed them. Rule as the data show it: active = GI50 up to about 1.1 µM and inactive = higher.

Key:
Test in all cases: NCI anticancer screen, dose series, 48 h
EKVX = tested on: EKVX
KM12 = tested on: KM12
NCI-H460 = tested on: NCI-H460
MCF7 = tested on: MCF7
SK-OV-3 = tested on: SK-OV-3
RPMI-8226 = tested on: RPMI-8226
HCT-15 = tested on: HCT-15
M14 = tested on: M14
SW-620 = tested on: SW-620
SK-MEL-2 = tested on: SK-MEL-2
OVCAR-8 = tested on: OVCAR-8
BT-549 = tested on: BT-549
HL-60 = tested on: HL-60
HCC 2998 = tested on: HCC 2998
SNB-75 = tested on: SNB-75
IGROV-1 = tested on: IGROV-1
NCI-H522 = tested on: NCI-H522
A498 = tested on: A498
ACHN = tested on: ACHN
K562 = tested on: K562

| Structure (SMILES) | GI50 (EKVX) | GI50 (KM12) | GI50 (NCI-H460) | GI50 (MCF7) | GI50 (SK-OV-3) | GI50 (RPMI-8226) | GI50 (HCT-15) [µM] | GI50 (M14) | GI50 (SW-620) | GI50 (SK-MEL-2) | GI50 (OVCAR-8) | GI50 (BT-549) | GI50 (HL-60) | GI50 (HCC 2998) | GI50 (SNB-75) | GI50 (IGROV-1) | GI50 (NCI-H522) | GI50 (A498) | GI50 (ACHN) | GI50 (K562) |
| --- | --- | --- | --- | --- | --- | --- | --- | --- | --- | --- | --- | --- | --- | --- | --- | --- | --- | --- | --- | --- |
| COc1ccc2c(c1)c(=O)c1c(NCCCN(C)CCCNc3ccc4c(=O)n(CCN(C)C)c(=O)n5c6ccc(OC)cc6c(=O)c3c45)ccc3c(=O)n(CCN(C)C)c(=O)n2c31 | 0.188 µM (active) | < 0.01 µM (active) | < 0.01 µM (active) | < 0.01 µM (active) | 0.217 µM (active) | < 0.01 µM (active) | < 0.0258 | 0.594 µM (active) | < 0.01 µM (active) | 0.514 µM (active) | < 0.01 µM (active) | 0.259 µM (active) | 0.0914 µM (active) | < 0.01 µM (active) | < 0.0175 µM (active) | < 0.01 µM (active) | < 0.0193 µM (active) | 0.305 µM (active) | < 0.01 µM (active) | < 0.01 µM (active) |
| C=C1C(C2(C)C(OC(C)=O)CC(=O)OC(C)(COC(C)=O)C2CC(=O)OC)C(OC=O)C(OC(=O)C(O)C(C)CC)C2(C)C(c3ccoc3)CC(=O)C12O (stereo not given) | 6.32 µM (inactive) | 3.23 µM (inactive) | 2.65 µM (inactive) | > 25.5 µM (inactive) | 0.78 µM (active) | > 100 µM (inactive) | 4.8 | > 23.8 µM (inactive) | 2.08 µM (inactive) | > 31.4 µM (inactive) | 10.2 µM (inactive) | 4.33 µM (inactive) | 0.157 µM (active) | 0.16 µM (active) | 3.57 µM (inactive) | 2.52 µM (inactive) | 0.83 µM (active) | 4.52 µM (inactive) | 4.2 µM (inactive) | 4.49 µM (inactive) |
| COc1ccc2nc3ccc(OC)cc3c([S+]([O-])Cc3ccccc3)c2c1 (stereo not given) | 16.3 µM (inactive) | 17.8 µM (inactive) | 25.5 µM (inactive) | 2.3 µM (inactive) | 18.8 µM (inactive) | 2.3 µM (inactive) | 6.61 | 14.4 µM (inactive) | 3.89 µM (inactive) | 17 µM (inactive) | 3.48 µM (inactive) | 14.3 µM (inactive) | 3.84 µM (inactive) | 19.4 µM (inactive) | 15.5 µM (inactive) | 7.96 µM (inactive) | 1.65 µM (inactive) | 17 µM (inactive) | 4.03 µM (inactive) | 8.51 µM (inactive) |
| O=c1[nH]c(=O)n(C2CC(O)C(CO)O2)cc1I (stereo not given) | > 100 µM (inactive) | > 100 µM (inactive) | > 60.7 µM (inactive) | 18.5 µM (inactive) | > 100 µM (inactive) | > 43.8 µM (inactive) | > 100 | > 70.3 µM (inactive) | > 100 µM (inactive) | > 100 µM (inactive) | > 100 µM (inactive) | > 100 µM (inactive) | > 81.3 µM (inactive) | > 82.6 µM (inactive) | > 100 µM (inactive) | > 100 µM (inactive) | > 100 µM (inactive) | > 100 µM (inactive) | > 100 µM (inactive) | > 23.1 µM (inactive) |
| COc1cccc(NC(=O)CC(=O)N2N=C(C)C(/N=N\c3ccc(S(=O)(=O)c4ccc(/N=N/C5C(=O)N(C(=O)CC(=O)Nc6cccc(OC)c6)N=C5C)cc4)cc3)C2=O)c1 (stereo not given) | > 100 µM (inactive) | > 100 µM (inactive) | > 100 µM (inactive) | > 100 µM (inactive) | > 100 µM (inactive) | > 100 µM (inactive) | > 100 | > 100 µM (inactive) | > 100 µM (inactive) | > 100 µM (inactive) | > 100 µM (inactive) | > 100 µM (inactive) | > 100 µM (inactive) | > 100 µM (inactive) | > 100 µM (inactive) | > 100 µM (inactive) | > 100 µM (inactive) | > 100 µM (inactive) | > 100 µM (inactive) | > 100 µM (inactive) |
